Results published in ChEMBL document CHEMBL4038308, “Lipophosphonoxins II: Design, Synthesis, and Properties of Novel Broad Spectrum Antibacterial Agents” (J Med Chem, 2017).
Converted amounts (≈) assume the structure as drawn. The source made the active and inactive calls. No cut-off for these calls is given here.

How the values were obtained:
Escherichia coli [1] = experiment: Antibacterial activity against Escherichia coli CCM 3954 after 24 hrs by microdilution method; type: functional; conditions: CCM 3954, 24 h
Pseudomonas aeruginosa [2] = experiment: Antibacterial activity against Pseudomonas aeruginosa CCM 3955 after 24 hrs by microdilution method; type: functional; conditions: CCM 3955, 24 h
Enterococcus faecalis = experiment: Antibacterial activity against Enterococcus faecalis CCM 4224 after 24 hrs by microdilution method; type: functional; conditions: CCM 4224, 24 h
Staphylococcus aureus [3] = experiment: Antibacterial activity against Staphylococcus aureus CCM 4223 after 24 hrs by microdilution method; type: functional; conditions: CCM 4223, 24 h
Bacillus subtilis [4] = experiment: Antibacterial activity against Bacillus subtilis after 24 hrs by microdilution method; type: functional
Streptococcus agalactiae = experiment: Antibacterial activity against Streptococcus agalactiae after 24 hrs by microdilution method; type: functional
Escherichia coli [5] = experiment: Antibacterial activity against Escherichia coli 16702 after 24 hrs by microdilution method; type: functional; conditions: Escherichia coli, 16702, 24 h
Pseudomonas aeruginosa [6] = experiment: Antibacterial activity against Pseudomonas aeruginosa 16575 after 24 hrs by microdilution method; type: functional; conditions: Pseudomonas aeruginosa, 16575, 24 h
Staphylococcus aureus [7] = experiment: Antibacterial activity against methicillin-resistant Staphylococcus aureus 4591 clinical isolates after 24 hrs by microdilution method; type: functional; conditions: Staphylococcus aureus, 4591, 24 h
[8] = tested on: Staphylococcus haemolyticus; experiment: Antibacterial activity against fluoroquinolne-resistant Staphylococcus haemolyticus 16568 after 24 hrs by microdilution method; type: functional; conditions: Staphylococcus haemolyticus, 16568, 24 h
[9] = tested on: Staphylococcus epidermidis; experiment: Antibacterial activity against Staphylococcus epidermidis 8700/B after 24 hrs by microdilution method; type: functional
Enterococcus faecium = experiment: Antibacterial activity against vancomycin-resistant Enterococcus faecium 419/ana clinical isolates after 24 hrs by microdilution method; type: functional
Salmonella enteritidis = experiment: Antibacterial activity against Salmonella enteritidis S2-25 after 24 hrs by microdilution method; type: functional, Salmonella enterica subsp. enterica serovar Enteritidis; conditions: Salmonella enterica, S2-25, 24 h
Acinetobacter baumannii = experiment: Antibacterial activity against Acinetobacter baumannii A3-08 after 24 hrs by microdilution method; type: functional; conditions: A3-08, 24 h
[10] = tested on: Stenotrophomonas maltophilia; experiment: Antibacterial activity against Stenotrophomonas maltophilia S2-23 after 24 hrs by microdilution method; type: functional; conditions: S2-23, 24 h
Burkholderia multivorans = experiment: Antibacterial activity against Burkholderia multivorans after 24 hrs by microdilution method; type: functional
Bacillus subtilis [11] = experiment: Antibacterial activity against Bacillus subtilis assessed as inhibition of DNA synthesis at 2 mg/L after 50 mins by [3H]thymidine incorporation assay; type: functional
Bacillus subtilis [12] = experiment: Antibacterial activity against Bacillus subtilis assessed as inhibition of RNA synthesis at 2 mg/L after 50 mins by [3H]-uridine incorporation assay; type: functional
Bacillus subtilis [13] = experiment: Antibacterial activity against Bacillus subtilis assessed as inhibition of peptidoglycan synthesis at 2 mg/L after 50 mins by [3H]-N-acetylglucosamine incorporation assay; type: functional
Bacillus subtilis [14] = experiment: Antibacterial activity against Bacillus subtilis assessed as inhibition of plasma membrane lipids synthesis at 2 mg/L after 50 mins by [3H]-sodium acetate incorporation assay; type: functional
Bacillus subtilis [15] = experiment: Antibacterial activity against Bacillus subtilis assessed as inhibition of protein synthesis at 2 mg/L after 50 mins by [35S]-methionine incorporation assay; type: functional
Lipid bilayer [16] = experiment: Binding affinity to DOPG large unilamellar vesicle assessed as carboxyfluorescein leakage at 10 mg/L after 20 secs by fluorescence-based assay relative to control
Lipid bilayer [17] = experiment: Binding affinity to DOPG large unilamellar vesicle assessed as carboxyfluorescein leakage at 10 ug/ml after 20 secs by fluorescence-based assay relative to control
Lipid bilayer [18] = experiment: Binding affinity to DOPC large unilamellar vesicle assessed as carboxyfluorescein leakage at 10 to 20 ug/ml after 20 secs by fluorescence-based assay relative to control
BJ = experiment: Cytotoxicity against human BJ cells assessed as reduction in cell viability after 48 hrs by ATPlite reagent based assay
TERT-RPE1 [19] = experiment: Cytotoxicity against human RPE1 cells assessed as reduction in cell viability after 48 hrs by ATPlite reagent based assay; conditions: tert-rpe1, 48 h
HepG2 [20] = experiment: Cytotoxicity against human HepG2 cells assessed as reduction in cell viability after 48 hrs by ATPlite reagent based assay; conditions: hepg2, 48 h
TERT-RPE1 [21] = experiment: Induction of apoptosis in human RPE1 cells assessed as caspase 3/7 activation up to 80 mg/L after 4 hrs by caspase-Glo 3/7 luminescent assay; type: cell-based; conditions: tert-rpe1, 4 h
HepG2 [22] = experiment: Induction of apoptosis in human HepG2 cells assessed as caspase 3/7 activation up to 80 mg/L after 4 hrs by caspase-Glo 3/7 luminescent assay; type: cell-based; conditions: hepg2, 4 h
TERT-RPE1 [23] = experiment: Cytotoxicity against human RPE1 cells assessed as disruption of cell membrane integrity after 4 hrs by CytoTox-ONE-based assay; conditions: tert-rpe1, 4 h
HepG2 [24] = experiment: Cytotoxicity against human HepG2 cells assessed as disruption of cell membrane integrity after 4 hrs by CytoTox-ONE-based assay; conditions: hepg2, 4 h
[25] = Apparent permeability across apical to basolateral side in human Caco2 cells at 200 uM after 3 hrs by LC-MS analysis; type: ADME, cell-based; conditions: caco-2, 3 h
[26] = Chemical stability of compound at 50 to 500 mg/L at pH 0.18 after 24 hrs at room temperature by LC-MS analysis; type: physicochemical; conditions: buffer, pH 0.18, 24 h
[27] = Chemical stability of compound at 50 to 500 mg/L at pH 5 after 24 hrs at room temperature by LC-MS analysis; type: physicochemical; conditions: buffer, pH 5, 24 h
[28] = Chemical stability of compound at 50 to 500 mg/L at pH 8.8 after 24 hrs at room temperature by LC-MS analysis; type: physicochemical; conditions: buffer, pH 8.8, 24 h
TERT-RPE1 [29] = experiment: Cytotoxicity against human RPE1 cells assessed as disruption of cell membrane integrity at >80 mg/L after 4 hrs by CytoTox-ONE-based assay; conditions: tert-rpe1, 4 h
[30] = Chemical stability of compound at 50 to 500 mg/L at pH 0.18 after 24 hrs at 37 degC by LC-MS analysis; type: physicochemical; conditions: buffer, pH 0.18, 24 h
[31] = Chemical stability of compound at 50 to 500 mg/L at pH 5 after 24 hrs at 37 degC by LC-MS analysis; type: physicochemical; conditions: buffer, pH 5, 24 h
[32] = Chemical stability of compound at 50 to 500 mg/L at pH 8.8 after 24 hrs at 37 degC by LC-MS analysis; type: physicochemical; conditions: buffer, pH 8.8, 24 h

## CCCCCCCCCCCCCCCOP(=O)(CCN(CCCN)CCCN)OC[C@H]1O[C@@H](n2ccc(=O)[nH]c2=O)[C@H](O)[C@@H]1O (some centres undefined)
Escherichia coli [1]
  MIC: 6.25 µg/mL (≈ 9.25 µM)
Pseudomonas aeruginosa [2]
  MIC: 3.13 µg/mL (≈ 4.63 µM)
Enterococcus faecalis
  MIC: 50 µg/mL (≈ 74 µM)
Staphylococcus aureus [3]
  MIC: 6.25 µg/mL (≈ 9.25 µM)
Bacillus subtilis [4]
  MIC: 3.13 µg/mL (≈ 4.63 µM)
Streptococcus agalactiae
  MIC: 1.56 µg/mL (≈ 2.31 µM)
Escherichia coli [5]
  MIC: 25 µg/mL (≈ 37 µM)
Pseudomonas aeruginosa [6]
  MIC: 6.25 µg/mL (≈ 9.25 µM)
Staphylococcus aureus [7]
  MIC: 1.56 µg/mL (≈ 2.31 µM)
[8]
  MIC: 3.13 µg/mL (≈ 4.63 µM)
[9]
  MIC: 3.13 µg/mL (≈ 4.63 µM)
Enterococcus faecium
  MIC: 6.25 µg/mL (≈ 9.25 µM)
Salmonella enteritidis
  MIC: 6.25 µg/mL (≈ 9.25 µM)
Acinetobacter baumannii
  MIC: 3.13 µg/mL (≈ 4.63 µM)
[10]
  MIC: 3.13 µg/mL (≈ 4.63 µM)
Burkholderia multivorans
  MIC: 50 µg/mL (≈ 74 µM)
Bacillus subtilis [11]
  inhibition: inactive
Bacillus subtilis [12]
  inhibition: inactive
Bacillus subtilis [13]
  inhibition: inactive
Bacillus subtilis [14]
  inhibition: inactive
Bacillus subtilis [15]
  inhibition: inactive
Lipid bilayer [16]
  Activity: Active
Lipid bilayer [17]
  fold change (FC): 25
Lipid bilayer [18]
  Activity: 20 to 35%
BJ
  Activity: 29.1 mg/L
TERT-RPE1 [19]
  Activity: 34.8 mg/L
HepG2 [20]
  Activity: 33.2 mg/L
TERT-RPE1 [21]
  Activity: Non-Toxic
HepG2 [22]
  Activity: Non-Toxic
TERT-RPE1 [23]
  Activity: 73.8 mg/L
HepG2 [24]
  Activity: Non-Toxic
[25]
  permeability: Impermeable
[26]
  Stability: Stable
[27]
  Stability: Stable
[28]
  Stability: Stable
TERT-RPE1 [29]
  Activity: Non-Toxic
[30]
  Stability: Stable
[31]
  Stability: Stable
[32]
  Stability: Stable
